Measured values taken from US9029078B2, “Perfusion and/or preservation solution for organs” (Philadelphia College of Osteopathic Medicine, priority 2005, dated 2015).
Entries after “also recorded” stand apart in the source; their conditions may differ. Where no end group is shown, it is not given here.

How the values were obtained:
rat aortic endothelium = experiment: Measurement of NO release from rat aortic segments; details: for Increase in NO release above basal: basal 1.85±0.18; for Induced production of NO after treating the endothelium with L-NAME: L-NAME 400 μM
Excerpt: FIG. 5. Measurement of NO release from rat aortic segments. […] All values are expressed as means± SEM. Numbers at bottom of bars are numbers of separate experiments per group. *p<0.05, **p<0.01, from basal values. FIG. 10. Measurement of NO release from rat aortic segments. […] All values are expressed as means± SEM. Numbers at bottom of bars are numbers of separate experiments per group. *p<0.05, **p<0.01, from basal values. FIG. 17. Measurement of NO release from rat aortic segments. […] All values are expressed as means± SEM. Numbers at bottom of bars are numbers of separate experiments per group. **p<0.01, from basal values. PMN adherence to coronary vascular endothelium was also evaluated within the assessment of total intravascular and infiltrated PMNs. […] NO release from rat aortic endothelium was measured to determine if PKC ζ peptide inhibitor provides cardioprotection by a mechanism involving increased endothelial NO release. […] The eNOS inhibitor, L-NAME, was used as another control in order to decrease basal release of NO to zero.

fMLP-stimulated rat PMNs = experiment: Superoxide release from fMLP-stimulated rat PMNs; format: cell-based; details: for Superoxide release (absorbance): fMLP-stimulated PMNs alone 0.13±0.01
Procedure: FIG. 11. Superoxide release from rat PMNs. Superoxide release was measured from 5×10^6 PMNs after formyl-methionyl-leucyl-phenylalanine (fMLP) (200 nM) stimulation. SOD (10 μg/ml) was employed as a positive control. The change in absorbance (Δ) was measured 90 sec after fMLP addition (peak response). […] All values are means± SEM. Numbers at bottom of bars are numbers of separate experiments per group.

[1] = tested on: isolated perfused rat hearts (I/R+PMNs); experiment: Isolated perfused rat heart, 20 min ischemia / 45 min reperfusion with PMNs: cardiac contractile function (LVDP, +dP/dtmax, LVEDP); details: for LVDP of initial baseline (initial depression): 15 min into reperfusion; for Protective effect on +dP/dt max in the presence of L-NAME (in words) / Protective effect on LVDP in the presence of L-NAME (in words): with L-NAME; for PMN-induced contractile dysfunction / decrease in +dP/dt max (in words): final +dP/dt max after reperfusion; for PMN-induced contractile dysfunction / decrease in +dP/dt max (in words) / PMN-induced contractile dysfunction / decrease in LVDP (in words): vs I/R+PMNs; for PMN-induced contractile dysfunction / decrease in LVDP (in words): final LVDP, 45 min post reperfusion
Procedure: (§1) Data were recorded every 5 min for 45 min post-reperfusion. After each experiment, the left ventricle was isolated, fixed in 4% paraformaldehyde and stored at 4° C. for later histological analysis.

[2] = tested on: PMN infiltration into the myocardium of isolated perfused rat hearts; experiment: Histological assessment of total intravascular and infiltrated PMNs in post-reperfusion cardiac tissue
Procedure: FIG. 4a. Histological assessment of total intravascular and infiltrated PMNs in isolated perfused rat heart samples taken from 3 rats per group and 10 areas per heart. […] Hatched boxes represent non-PMN perfused hearts and black boxes represent PMN-perfused hearts. **P<0.01, from I/R+PMNs.
as §1
The cardiac injury associated with I/R in this model was closely correlated with the substantial number of PMNs infiltrating the myocardium within the 45 min reperfusion period. During reperfusion, a significant number of PMNs transmigrated into the myocardium, increasing from less than 25 PMN/mm^2 in Sham I/R hearts to more than 180 PMN/mm^2 in I/R+PMN hearts at the end of the reperfusion period (FIG. 4a).

[3] = tested on: PMN adherence to coronary vascular endothelium; experiment: Histological assessment of intravascular PMNs adhering to the coronary vasculature; set-up: species or system rat
Procedure: FIG. 4b. Histological assessment of intravascular PMNs that adhered to the coronary vasculature in isolated perfused rat heart samples taken from 3 rats per group
and 10 areas per heart. […] Hatched boxes represent non-PMN perfused hearts and black boxes represent PMN-perfused hearts. All values are mean numbers of PMNs/mm^2 of heart area± SEM.
PMN adherence to coronary vascular endothelium was also evaluated within the assessment of total intravascular and infiltrated PMNs. […] NO release from rat aortic endothelium was measured to determine if PKC ζ peptide inhibitor provides cardioprotection by a mechanism involving increased endothelial NO release. […] The eNOS inhibitor, L-NAME, was used as another control in order to decrease basal release of NO to zero.

PMA-stimulated rat PMNs = experiment: Superoxide release from PMA-stimulated rat PMNs; format: cell-based; details: for Superoxide release vs PMA-stimulated rat PMNs (in words): 1 μM; for Superoxide release (absorbance): PMA-stimulated PMNs alone 0.49±0.03; for Superoxide release after PMA (15 nM) stimulation (in words): 360 sec after PMA
Procedure: (§2) FIG. 6. Superoxide release from rat PMNs. Superoxide release was measured from 5×10^6 PMNs after phorbol-12-myristate-13-acetate (PMA) (15 nM) stimulation. Superoxide dismutase (SOD) (10 μg/ml) was employed as a positive control. The change in absorbance (Δ) was measured 360 sec after PMA addition (peak response). […] All values are means± SEM. Numbers at bottom of bars show the numbers of separate experiments per group.
as §2, with “18.” for “6.”, “PMA” for “phorbol-12-myristate-13-acetate (PMA)”, “SOD” for “Superoxide dismutase (SOD)”
FIG. 22. Superoxide release from rat PMNs. Superoxide release was measured from 5×10^6 PMNs after PMA (15 nM) stimulation. The change in absorbance (Δ) was measured 360 sec after PMA addition (peak response). […] All values are means± SEM. Numbers at bottom of bars show the numbers of separate experiments per group.

[4] = I/R+PMN hearts, 1 μM, 45 min post-reperfusion
[5] = I/R+PMN hearts, 5 μM, 45 min post-reperfusion
[6] = I/R+PMN hearts, 10 μM + L-NAME 50 μM, 45 min post-reperfusion
[7] = I/R+PMN hearts, 10 μM, 45 min post-reperfusion
[8] = I/R+PMN hearts, 2.5 μM, 45 min post-reperfusion
[9] = I/R+PMN hearts, 5 μM + L-NAME 50 μM, 45 min post-reperfusion

Row | Compound | LVDP of I/R+PMN group compared to treated I/R+PMN group (time course) ([1]; 10 μM, reperfusion 0 to 45 min) | +dP/dtmax recovered to, of initial baseline [1, 4] [%] | LVDP recovered to, of initial baseline [1, 4] [%] | +dP/dtmax recovered to, of initial baseline [1, 5] [%] | LVDP recovered to, of initial baseline [1, 5] [%] | LVDP of initial baseline (initial depression) ([1]; I/R+PMN hearts, 10 μM) [%] | +dP/dtmax recovered to, of initial baseline [1, 7] [%] | LVDP recovered to, of initial baseline [1, 7] [%] | Protective effect on +dP/dt max in the presence of L-NAME (in words) ([1]; I/R+PMN hearts) | Protective effect on LVDP in the presence of L-NAME (in words) ([1]; I/R+PMN hearts) | PMN-induced contractile dysfunction / decrease in +dP/dt max (in words) [1] | PMN-induced contractile dysfunction / decrease in LVDP (in words) [1] | Endothelial NO release vs basal NO release (in words) (rat aortic endothelium) | Induced production of NO after treating the endothelium with L-NAME (rat aortic endothelium) | Total intravascular and infiltrated PMNs vs I/R+PMNs (in words) ([2]; I/R+PMN hearts) | Superoxide release vs PMA-stimulated rat PMNs (in words) (PMA-stimulated rat PMNs) | Superoxide release after PMA (15 nM) stimulation (in words) (PMA-stimulated rat PMNs) | also measured
1 | CC(=O)OCC[N+](C)(C)C [Acetylcholine, reference compound] |  |  |  |  |  |  |  |  |  |  |  |  |  |  |  |  |  | Increase in NO release compared to basal NO release (rat aortic endothelium; 200 nM (positive control)): 67±4%; Increase in NO release above basal (rat aortic endothelium; 500 nM (positive control)): 3.75±0.58 pmoles NO/mg tissue
2 | PKC βII peptide inhibitor: peptide inhibitor of protein kinase C beta II; preferred sequence SEQ ID NO: 1, preferably myristoylated (SLNPEWNET; not fully specified; listed as Homo sapiens) | significant and sustained reduction | 53±6 | 57±4 | 63±7 | 69±7 | 61±10 | 79±10 | 82±9 | blocked | significantly blocked | attenuated | attenuated | significantly increased; also recorded: significantly more NO | completely inhibited |  |  |  | Inhibition of superoxide (in words) (fMLP-stimulated rat PMNs; 1 μM): no significant inhibition; Superoxide release (absorbance) (fMLP-stimulated rat PMNs; 5 μM): 0.05±0.009; Superoxide release (absorbance) (fMLP-stimulated rat PMNs; 10 μM): 0.02±0.004; Superoxide release (absorbance) (fMLP-stimulated rat PMNs; 20 μM): 0.02±0.007; Superoxide release after fMLP (200 nM) stimulation (in words) (fMLP-stimulated rat PMNs; 5, 10 and 20 μM, 90 sec after fMLP): significantly inhibited; +dP/dtmax of initial baseline [1, 6]: 53±5%; LVDP of initial baseline [1, 6]: 56±2%; Increase in NO release above basal (rat aortic endothelium; 1 μM): 0.75±0.19 pmoles NO/mg tissue; Increase in NO release above basal (rat aortic endothelium; 2.5 μM): 1.91±0.44 pmoles NO/mg tissue; Increase in NO release above basal (rat aortic endothelium; 5 μM): 2.54±0.29 pmoles NO/mg tissue; Increase in NO release above basal (rat aortic endothelium; 10 μM): 3.49±0.62 pmoles NO/mg tissue
3 | PKC δ peptide activator: peptide activator of protein kinase C delta; preferred sequence SEQ ID NO: 3, preferably myristoylated (MRAAEDPM; not fully specified; listed as Homo sapiens) | significant and sustained reduction | 51±5 | 60±13 | 67±7 | 80±9 | 58±8 | 79±5 | 83±3 |  |  | attenuated | attenuated |  |  | attenuated | no significant inhibition | significantly inhibited | LVEDP of I/R+PMN group compared to treated I/R+PMN group (time course) ([1]; 10 μM, reperfusion 0 to 45 min): significant and sustained elevation; PMNs adhering to the coronary vasculature vs I/R+PMN hearts (in words) [3]: attenuated; Superoxide release (absorbance) (PMA-stimulated rat PMNs; 5 μM): 0.32±0.03; Superoxide release (absorbance) (PMA-stimulated rat PMNs; 10 μM): 0.32±0.02
4 | PKC ζ peptide inhibitor: peptide inhibitor of protein kinase C zeta; preferred sequence SEQ ID NO: 2, preferably myristoylated; from Genemed Synthesis (SIYRRGARRWRKL; not fully specified; listed as Homo sapiens) |  | 46±6 | 57±10 | 76±5 | 84±4 |  |  |  | blocked | significantly blocked | attenuated | attenuated | significantly increased | completely inhibited | significantly attenuated | no difference | significantly inhibited | Infiltrated PMNs compared to 1 μM treated hearts ([2]; 2.5 and 5 μM treated hearts): significantly fewer infiltrated PMNs; Reduction in PMN infiltration into post-reperfused cardiac tissue ([2]; I/R+PMN hearts, 1 μM): 20±6%; Reduction in PMN infiltration into post-reperfused cardiac tissue ([2]; I/R+PMN hearts, 2.5 μM): 46±4%; Reduction in PMN infiltration into post-reperfused cardiac tissue ([2]; I/R+PMN hearts, 5 μM): 48±3%; Effect on PMN infiltration in the presence of L-NAME (in words) ([2]; I/R+PMN hearts, with L-NAME): blocked; LVDP of I/R+PMN group compared to treated I/R+PMN group (time course) ([1]; 5 μM, reperfusion 0 to 45 min): significant and sustained reduction; +dP/dtmax recovered to, of initial baseline [1, 8]: 75±5%; LVDP recovered to, of initial baseline [1, 8]: 83±4%; +dP/dtmax recovered to, of initial baseline [1, 9]: 54±9%; LVDP recovered to, of initial baseline [1, 9]: 58±7%; Lowest effective dose ([1]; I/R+PMN hearts, LVDP and +dP/dtmax): 2.5 µM; NO release compared to basal NO release (rat aortic endothelium; 1 μM): not significantly different; Increase in NO release compared to basal NO release (rat aortic endothelium; 2.5 μM): 47±2%; Increase in NO release compared to basal NO release (rat aortic endothelium; 5 μM): 54±5%; NO release from endothelium removed (denuded) rat aortic segments (rat aortic endothelium; 5 μM, denuded segments): not different from L-NAME-treated segments; Increase in NO release compared to basal NO release (rat aortic endothelium; 15 μM): 91±15%; Reduction in adherent PMNs to the coronary endothelium (not significant, p<0.06) ([3]; I/R+PMN hearts, 5 μM): 43±10%; Inhibition of PMN superoxide release (PMA-stimulated rat PMNs; 15 μM): 82%; Inhibition of superoxide release (PMA-stimulated rat PMNs; 2.5-15 μM, PMA 15 nM): 33-82%
